For one assay, the system named is A. baumannii 19606. Kind of assay: Minimal inhibitory concentration, A. baumannii 19606. Type of assay: cell-based. Conditions: 16 hour minimal inhibitory concentration at 37° C., read-out: MIC (μM) A. baumannii 19606. Put shortly:
(§1)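 MICs (µM) correspond to the lowest concentration stopping bacterial growth, judged by visible-light absorbance at 600 nm following a 16 h static incubation at 37 °C. Compounds were titrated twofold into doubly 1:100-diluted saturated cultures.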

A further assay deals with E. coli 25922. As to the kind of experiment: Minimal inhibitory concentration, E. coli 25922. It is filed as cell-based. Conditions: 16 hour minimal inhibitory concentration at 37° C., read-out: MIC (μM) E. coli 25922. Put shortly:
as §1

Another assay concerns S. aureus MW2. As to the kind of experiment: Minimal inhibitory concentration, S. aureus MW2. Type of assay: cell-based. As to conditions: 16 hour minimal inhibitory concentration at 37° C., read-out: MIC (μM) S. aureus MW2 (MRSA). Put shortly:
as §1

For a further assay, the system named is E. coli MC4100. As to the kind of experiment: Minimal inhibitory concentration, E. coli MC4100. Conditions: 16 hour minimal inhibitory concentration at 37° C., read-out: MIC (μM) E. coli MC4100 ara+. It is filed as cell-based. A digest of the protocol: as §1
The next assay deals with E. cloacae 13047. As to the kind of experiment: Minimal inhibitory concentration, E. cloacae 13047. It is filed as cell-based. As to conditions: 16 hour minimal inhibitory concentration at 37° C., read-out: MIC (μM) E. cloacae 13047. Put shortly:
as §1

Another assay has as its system WT E. coli. As to the kind of experiment: Minimal inhibitory concentration in wild-type E. coli. Type of assay: cell-based, Escherichia coli. Conditions: wild-type E. coli, 37° C., 16 hours, read-out: MIC (μM) in WT E. coli. Put shortly: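 Broth microdilution: saturated LB overnight culture diluted 1:100 twice, compound serially two-fold diluted across the plate from DMSO stock. Static incubation 16 hours at 37° C, OD600 read; MIC taken as lowest concentration inhibiting growth.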

The subject of a further assay is S. aureus RN4220. As to the kind of experiment: Minimal inhibitory concentration, S. aureus RN4220. As to conditions: 16 hour minimal inhibitory concentration at 37° C., read-out: MIC (μM) S. aureus RN4220. Type of assay: cell-based. A digest of the protocol: as §1
Another assay deals with K. pneumoniae 700721. As to the kind of experiment: Minimal inhibitory concentration, K. pneumoniae 700721. It is filed as cell-based. As to conditions: 16 hour minimal inhibitory concentration at 37° C., read-out: MIC (μM) K. pneumoniae 700721. A digest of the protocol: as §1
The mark [1] stands for this setting: Acinetobacter baumannii, 19606, 16 h.
[2] abbreviates: Staphylococcus aureus, MRSA, 16 h.
[3] abbreviates: Staphylococcus aureus, RN4220, 16 h.

Values after ≈ are worked out from the molar mass of the structure shown. Read-outs that look alike come from different tables or passages of the source.

Usually MIC stands for the lowest concentration that inhibits growth of the organism. `CO[C@@H]1[C@@H](OC(N)=O)[C@@H](O)[C@H](Oc2ccc3c(O)c(NC(=O)c4ccc(O)c(CC(N)=O)c4)c(=O)oc3c2C)OC1(C)C` [Compound 90]: the MIC in the assay on A. baumannii 19606 is given as >50 µM; in the assay on E. coli 25922, >200 µM; with S. aureus MW2, >100 µM; in the assay with E. coli MC4100, >200 µM; in the assay on E. cloacae 13047 it was >100 µM; in the assay on WT E. coli it was >300 µM. Also, the MIC in the assay on S. aureus RN4220 and in the assay on K. pneumoniae 700721 was >100 µM each time.
Regarding `COc1ccc(C(=O)Nc2c(O)c3ccc(O[C@@H]4OC(C)(C)[C@H](OC)[C@@H](OC(N)=O)[C@H]4O)c(C)c3oc2=O)cc1` [Compound 7], the MIC in the assay on A. baumannii 19606 (setting [1]) was > 50 µM; in the assay with E. coli 25922 (Escherichia coli, 25922, 16 h) it was > 200 µM; with S. aureus MW2 (setting [2]) it was 45 µM (≈ 25.1 µg/mL); in the assay on E. coli MC4100 (Escherichia coli, MC4100, 16 h), > 200 µM; in the assay on E. cloacae 13047 (Enterobacter cloacae, 13047) it was > 100 µM; with WT E. coli (Escherichia coli), > 300 µM. For the same compound, the MIC is 45 µM (≈ 25.1 µg/mL) in the assay on S. aureus RN4220 (setting [3]) and > 100 µM in the assay on K. pneumoniae 700721 (Klebsiella pneumoniae, 700721).
On to `COc1ccc(C(=O)Nc2c(O)c3ccc(O[C@@H]4OC(C)(C)[C@H](OC)[C@@H](OC(N)=O)[C@H]4O)c(C)c3oc2=O)cc1OC` [Compound 9], for which the MIC in the assay with A. baumannii 19606 (setting [1]) is > 50 µM; in the assay with E. coli 25922 (Escherichia coli, 25922, 16 h) it was > 200 µM; in the assay with S. aureus MW2 (setting [2]), 43 µM (≈ 25.3 µg/mL); in the assay on E. coli MC4100 (Escherichia coli, MC4100, 16 h) it was > 200 µM; in the assay on E. cloacae 13047 (Enterobacter cloacae, 13047), > 100 µM; in the assay with WT E. coli (Escherichia coli), > 300 µM. For the same compound, the MIC was 85 µM (≈ 50 µg/mL) in the assay with S. aureus RN4220 (setting [3]) and > 100 µM in the assay on K. pneumoniae 700721 (Klebsiella pneumoniae, 700721).
With `CO[C@@H]1[C@@H](OC(N)=O)[C@@H](O)[C@H](Oc2ccc3c(O)c(NC(=O)c4cc5ccccc5o4)c(=O)oc3c2C)OC1(C)C` [Compound 6], the MIC with A. baumannii 19606 (setting [1]) is > 50 µM; in the assay on E. coli 25922 (Escherichia coli, 25922, 16 h), > 200 µM; with S. aureus MW2 (setting [2]), 88 µM (≈ 50 µg/mL); with E. coli MC4100 (Escherichia coli, MC4100, 16 h), > 200 µM; in the assay with E. cloacae 13047 (Enterobacter cloacae, 13047), > 100 µM; with WT E. coli (Escherichia coli), > 300 µM. The MIC is 88 µM (≈ 50 µg/mL) in the assay on S. aureus RN4220 (setting [3]) and > 100 µM in the assay with K. pneumoniae 700721 (Klebsiella pneumoniae, 700721).
Take `CO[C@@H]1[C@@H](OC(N)=O)[C@@H](O)[C@H](Oc2ccc3c(O)c(NC(=O)c4cc(-c5ccccc5)c(O)cc4O)c(=O)oc3c2C)OC1(C)C` [Compound 67]: the MIC was >50 µM in the assay with A. baumannii 19606; 5 µM (≈ 3.18 µg/mL) in the assay on E. coli 25922; 5 µM (≈ 3.18 µg/mL) in the assay on S. aureus MW2; 18 µM (≈ 11.5 µg/mL) in the assay with E. coli MC4100; >100 µM in the assay on E. cloacae 13047; 18 µM (≈ 11.5 µg/mL) in the assay with WT E. coli. The MIC in the assay with S. aureus RN4220 worked out at 10 µM (≈ 6.37 µg/mL); with K. pneumoniae 700721, 79 µM (≈ 50.3 µg/mL).
On to `CO[C@@H]1[C@@H](OC(N)=O)[C@@H](O)[C@H](Oc2ccc3c(O)c(NC(=O)c4cc5ccccc5[nH]4)c(=O)oc3c2C)OC1(C)C` [Compound 16], for which the MIC is >50 µM in the assay with A. baumannii 19606; >200 µM with E. coli 25922; >100 µM with S. aureus MW2; >200 µM with E. coli MC4100; >100 µM with E. cloacae 13047; >300 µM in the assay with WT E. coli. Further, the MIC with S. aureus RN4220 and in the assay with K. pneumoniae 700721 was >100 µM in each case.
For `CO[C@@H]1[C@@H](OC(N)=O)[C@@H](O)[C@H](Oc2ccc3c(O)c(NC(=O)c4cc(O)cc(-c5ccccc5)c4)c(=O)oc3c2C)OC1(C)C` [Compound 78], the MIC is 40 µM (≈ 24.8 µg/mL) in the assay with A. baumannii 19606; 40 µM (≈ 24.8 µg/mL) in the assay on E. coli 25922; 4 µM (≈ 2.48 µg/mL) in the assay with S. aureus MW2; 59 µM (≈ 36.6 µg/mL) with E. coli MC4100; >100 µM with E. cloacae 13047; 59 µM (≈ 36.6 µg/mL) in the assay on WT E. coli. In addition, the figures for the MIC with S. aureus RN4220 and with K. pneumoniae 700721 were 5 µM (≈ 3.1 µg/mL) and >100 µM, respectively.
As to `CO[C@@H]1[C@@H](OC(N)=O)[C@@H](O)[C@H](Oc2ccc3c(O)c(NC(=O)c4cc(-c5ccccc5)ccc4O)c(=O)oc3c2C)OC1(C)C` [Compound 87], the MIC is given as >50 µM in the assay with A. baumannii 19606; 20 µM (≈ 12.4 µg/mL) in the assay on E. coli 25922; 20 µM (≈ 12.4 µg/mL) in the assay on S. aureus MW2; 18 µM (≈ 11.2 µg/mL) in the assay on E. coli MC4100; >100 µM in the assay with E. cloacae 13047; 18 µM (≈ 11.2 µg/mL) in the assay with WT E. coli. For the same compound, the results for the MIC in the assay with S. aureus RN4220 and with K. pneumoniae 700721 were 20 µM (≈ 12.4 µg/mL) and 40 µM (≈ 24.8 µg/mL), respectively.
In the case of `CO[C@@H]1[C@@H](OC(N)=O)[C@@H](O)[C@H](Oc2ccc3c(O)c(NC(=O)c4cccc(-c5ccc([N+](=O)[O-])cc5)c4)c(=O)oc3c2C)OC1(C)C` [Compound 24], the MIC with A. baumannii 19606 is on record as >50 µM; in the assay with E. coli 25922, 154 µM (≈ 100 µg/mL); in the assay on S. aureus MW2 it was 5 µM (≈ 3.25 µg/mL); in the assay on E. coli MC4100, >200 µM; in the assay on E. cloacae 13047, >100 µM; in the assay on WT E. coli, >300 µM. In addition, the MIC with S. aureus RN4220 was 5 µM (≈ 3.25 µg/mL); with K. pneumoniae 700721, >100 µM.
Consider `CO[C@@H]1[C@@H](OC(N)=O)[C@@H](O)[C@H](Oc2ccc3c(O)c(NC(=O)c4c[nH]c5ccccc45)c(=O)oc3c2C)OC1(C)C` [Compound 17], for which the MIC was > 50 µM with A. baumannii 19606 (setting [1]); > 200 µM in the assay on E. coli 25922 (Escherichia coli, 25922, 16 h); 22 µM (≈ 12.5 µg/mL) in the assay on S. aureus MW2 (setting [2]); > 200 µM in the assay on E. coli MC4100 (Escherichia coli, MC4100, 16 h); > 100 µM with E. cloacae 13047 (Enterobacter cloacae, 13047); > 300 µM with WT E. coli (Escherichia coli). For the same compound, the MIC is 44 µM (≈ 25 µg/mL) with S. aureus RN4220 (setting [3]) and > 100 µM in the assay with K. pneumoniae 700721 (Klebsiella pneumoniae, 700721).
Turning to `CO[C@@H]1[C@@H](OC(N)=O)[C@@H](O)[C@H](Oc2ccc3c(O)c(NC(=O)c4ccc(O)cc4)c(=O)oc3c2C)OC1(C)C` [Compound 30], the MIC with A. baumannii 19606 (setting [1]) is > 50 µM; in the assay with E. coli 25922 (Escherichia coli, 25922, 16 h), > 200 µM; in the assay with S. aureus MW2 (setting [2]), 46 µM (≈ 25 µg/mL); with E. coli MC4100 (Escherichia coli, MC4100, 16 h), > 200 µM; with E. cloacae 13047 (Enterobacter cloacae, 13047), > 100 µM; in the assay with WT E. coli (Escherichia coli), > 300 µM. Also, the MIC was 46 µM (≈ 25 µg/mL) in the assay on S. aureus RN4220 (setting [3]) and > 100 µM with K. pneumoniae 700721 (Klebsiella pneumoniae, 700721).

The record behind these values is patent publication US11713335B2, “Aminocoumarin compounds and methods of their use” (President and Fellows of Harvard College, priority 2018, dated 2023).
